# Results as given in article PMC8371461 (Frontiers in Pharmacology, 2021).
# Assays:
# Format in all cases: binding
# RIPK5 = target: T1, RIPK5 (Homo sapiens, UniProt Q6XUX3); experiment: kinome scan; conditions: 10 µM
# T1 construct: purchased DiscoverX (KINOMEscan)
# BIKE = target: T2, BIKE (Homo sapiens, UniProt Q9NSY1); experiment: kinome scan; conditions: 10 µM
# T2 construct: purchased DiscoverX (KINOMEscan)
# SLK = target: T3, SLK (Homo sapiens, UniProt Q9H2G2); experiment: kinome scan; conditions: 10 µM
# T3 construct: purchased DiscoverX (KINOMEscan)
# DCAMKL1 = target: T4, DCAMKL1 (Homo sapiens, UniProt O15075); experiment: kinome scan; conditions: 10 µM
# T4 construct: purchased DiscoverX (KINOMEscan)
# EGFR(L858RT790M) = target: T5, EGFR(L858RT790M) (Homo sapiens, UniProt P00533, L858R/T790M); experiment: kinome scan; conditions: 10 µM
# T5 construct: purchased DiscoverX (KINOMEscan)
# T5 sequence (P00533 669-1011 T790M/L858R limits assumed): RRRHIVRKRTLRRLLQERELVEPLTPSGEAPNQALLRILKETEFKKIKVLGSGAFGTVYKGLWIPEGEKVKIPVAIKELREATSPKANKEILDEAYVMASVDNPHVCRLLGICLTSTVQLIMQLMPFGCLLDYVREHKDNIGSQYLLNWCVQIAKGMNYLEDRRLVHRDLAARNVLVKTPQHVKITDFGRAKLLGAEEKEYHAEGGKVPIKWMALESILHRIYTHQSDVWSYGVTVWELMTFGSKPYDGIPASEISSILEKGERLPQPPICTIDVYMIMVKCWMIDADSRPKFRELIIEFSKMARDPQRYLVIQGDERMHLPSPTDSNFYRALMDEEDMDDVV
# MAP4K2 = target: T6, MAP4K2 (Homo sapiens, UniProt Q12851); experiment: kinome scan; conditions: 10 µM
# T6 construct: purchased DiscoverX (KINOMEscan)
# TYK2 = TYK2 (Homo sapiens, UniProt P29597); experiment: Kd select analysis (DiscoverX)
# Procedure: Hits are identified by an ultra-sensitive quantitative PCR detecting the specific DNA tag linked to each kinase (Supplementary Figure S2). The drug is used at a concentration of 10 µM and results are expressed as the percentage of signal (kinase PCR detection) with respect to DMSO control conditions. […] Interactions between 0 and 20% of reduction were considered to be the most significant ones.
# PIK3CB = target: T7, PIK3CB (Homo sapiens, UniProt P42338); experiment: kinome scan
# T7 construct: purchased DiscoverX (KINOMEscan)
# T7 sequence (P42338 whole entry): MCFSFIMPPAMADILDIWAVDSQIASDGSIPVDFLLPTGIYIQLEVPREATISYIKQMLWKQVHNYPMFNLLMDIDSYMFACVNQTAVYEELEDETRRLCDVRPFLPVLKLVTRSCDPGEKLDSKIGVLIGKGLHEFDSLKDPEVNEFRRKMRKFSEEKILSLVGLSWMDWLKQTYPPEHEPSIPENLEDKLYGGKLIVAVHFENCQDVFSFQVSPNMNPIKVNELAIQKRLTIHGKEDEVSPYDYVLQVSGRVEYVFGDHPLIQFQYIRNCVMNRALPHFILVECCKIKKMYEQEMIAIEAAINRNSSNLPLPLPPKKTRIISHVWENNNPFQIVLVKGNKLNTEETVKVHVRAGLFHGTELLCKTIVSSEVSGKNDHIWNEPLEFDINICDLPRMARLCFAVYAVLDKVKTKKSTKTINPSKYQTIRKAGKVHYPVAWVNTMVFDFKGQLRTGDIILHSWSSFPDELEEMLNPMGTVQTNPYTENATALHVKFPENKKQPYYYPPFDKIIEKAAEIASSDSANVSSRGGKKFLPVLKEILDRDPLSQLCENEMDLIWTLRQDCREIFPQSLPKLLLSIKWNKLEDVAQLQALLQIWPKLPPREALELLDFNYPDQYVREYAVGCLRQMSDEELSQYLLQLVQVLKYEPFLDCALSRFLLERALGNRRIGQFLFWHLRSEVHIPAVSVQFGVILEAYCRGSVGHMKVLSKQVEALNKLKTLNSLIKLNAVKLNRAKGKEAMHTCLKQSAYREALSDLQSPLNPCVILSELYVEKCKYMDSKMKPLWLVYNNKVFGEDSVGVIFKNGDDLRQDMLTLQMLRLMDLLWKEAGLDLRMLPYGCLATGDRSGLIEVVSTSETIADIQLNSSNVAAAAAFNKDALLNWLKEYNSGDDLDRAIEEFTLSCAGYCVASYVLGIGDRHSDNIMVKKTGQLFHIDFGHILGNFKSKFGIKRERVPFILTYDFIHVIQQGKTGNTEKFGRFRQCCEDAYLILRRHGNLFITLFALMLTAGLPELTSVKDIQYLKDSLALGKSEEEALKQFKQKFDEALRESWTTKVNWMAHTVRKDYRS
# PIK3CA(M1043I) = target: T8, PIK3CA(M1043I) (Homo sapiens, UniProt P42336, M1043I); experiment: kinome scan; conditions: 10 µM
# T8 construct: purchased DiscoverX (KINOMEscan)
# MTOR = target: T9, MTOR (Homo sapiens, UniProt P42345); experiment: kinome scan; conditions: 10 µM
# T9 construct: purchased DiscoverX (KINOMEscan)
# RIOK3 = target: T10, RIOK3 (Homo sapiens, UniProt O14730); experiment: kinome scan; conditions: 10 µM
# T10 construct: purchased DiscoverX (KINOMEscan)
# [1] = target: T11, RPS6KA5(Kin.Dom.2-C-terminal) (Homo sapiens, UniProt O75582); experiment: kinome scan; conditions: 10 µM
# T11 construct: RPS6KA5(Kin.Dom.2-C-terminal); purchased DiscoverX (KINOMEscan)
# AKT1 = target: T12, AKT1 (Homo sapiens, UniProt P31749); experiment: kinome scan; conditions: 10 µM
# T12 construct: purchased DiscoverX (KINOMEscan)
# T12 sequence (P31749 whole entry): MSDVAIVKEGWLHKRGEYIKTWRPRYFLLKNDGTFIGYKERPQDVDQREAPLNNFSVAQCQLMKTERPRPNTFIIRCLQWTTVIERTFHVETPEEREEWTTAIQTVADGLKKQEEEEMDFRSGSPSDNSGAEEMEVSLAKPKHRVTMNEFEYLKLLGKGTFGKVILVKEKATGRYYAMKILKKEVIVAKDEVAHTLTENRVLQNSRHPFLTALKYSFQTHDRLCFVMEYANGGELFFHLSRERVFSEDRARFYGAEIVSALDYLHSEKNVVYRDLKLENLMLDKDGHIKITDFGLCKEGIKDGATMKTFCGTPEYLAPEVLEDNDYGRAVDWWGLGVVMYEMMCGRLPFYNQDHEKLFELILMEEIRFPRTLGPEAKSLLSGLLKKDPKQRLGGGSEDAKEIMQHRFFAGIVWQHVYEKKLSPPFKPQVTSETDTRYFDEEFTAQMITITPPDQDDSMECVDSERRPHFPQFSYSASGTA
# [2] = target: T13, ABL1(F317L)-nonphosphorylated (Homo sapiens, UniProt P00519, F317L); experiment: kinome scan; conditions: 10 µM
# T13 construct: purchased DiscoverX (KINOMEscan)
# T13 sequence (P00519 whole entry F317L): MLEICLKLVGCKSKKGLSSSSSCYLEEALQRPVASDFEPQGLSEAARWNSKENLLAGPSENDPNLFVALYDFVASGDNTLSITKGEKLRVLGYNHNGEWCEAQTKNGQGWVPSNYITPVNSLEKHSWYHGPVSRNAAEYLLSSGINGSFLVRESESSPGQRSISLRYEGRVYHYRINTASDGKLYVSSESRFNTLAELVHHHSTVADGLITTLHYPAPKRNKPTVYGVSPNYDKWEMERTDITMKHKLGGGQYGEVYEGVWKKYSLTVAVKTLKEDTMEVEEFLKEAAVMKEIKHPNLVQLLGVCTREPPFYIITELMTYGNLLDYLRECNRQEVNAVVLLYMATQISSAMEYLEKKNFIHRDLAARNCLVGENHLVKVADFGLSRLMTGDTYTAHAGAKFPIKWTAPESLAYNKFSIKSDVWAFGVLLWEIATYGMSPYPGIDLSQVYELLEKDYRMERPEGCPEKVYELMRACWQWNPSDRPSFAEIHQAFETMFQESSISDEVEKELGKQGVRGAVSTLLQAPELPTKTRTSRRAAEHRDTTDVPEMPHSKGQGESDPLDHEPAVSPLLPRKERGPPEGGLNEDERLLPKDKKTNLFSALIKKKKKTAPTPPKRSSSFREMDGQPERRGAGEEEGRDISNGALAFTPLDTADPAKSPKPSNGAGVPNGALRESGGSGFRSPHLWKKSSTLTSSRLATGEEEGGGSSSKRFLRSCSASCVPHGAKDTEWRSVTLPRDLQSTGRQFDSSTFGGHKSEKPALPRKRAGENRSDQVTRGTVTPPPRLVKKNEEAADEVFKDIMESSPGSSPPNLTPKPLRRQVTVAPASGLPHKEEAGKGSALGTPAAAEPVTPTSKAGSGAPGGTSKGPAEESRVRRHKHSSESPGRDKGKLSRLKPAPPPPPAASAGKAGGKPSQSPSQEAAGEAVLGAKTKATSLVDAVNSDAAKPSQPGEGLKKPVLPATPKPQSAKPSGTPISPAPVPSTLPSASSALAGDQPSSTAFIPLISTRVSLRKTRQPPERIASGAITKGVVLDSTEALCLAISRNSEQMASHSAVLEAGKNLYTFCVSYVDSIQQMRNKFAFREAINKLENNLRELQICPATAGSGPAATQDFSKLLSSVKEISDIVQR
# IRAK4 = target: T14, IRAK4 (Homo sapiens, UniProt Q9NWZ3); experiment: kinome scan; conditions: 10 µM
# T14 construct: purchased DiscoverX (KINOMEscan)
# [3] = target: T15, ABL1(F317I)-phosphorylated (Homo sapiens, UniProt P00519, F317I); experiment: kinome scan; conditions: 10 µM
# T15 construct: purchased DiscoverX (KINOMEscan)
# T15 sequence (P00519 whole entry F317I): as the sequence (P00519 whole entry F317L) above, with L317I counted along it
# EGFR(T790M) = target: T16, EGFR(T790M) (Homo sapiens, UniProt P00533, T790M); experiment: kinome scan; conditions: 10 µM
# T16 construct: purchased DiscoverX (KINOMEscan)
# HIPK3 = target: T17, HIPK3 (Homo sapiens, UniProt Q9H422); experiment: kinome scan; conditions: 10 µM
# T17 construct: purchased DiscoverX (KINOMEscan)
# MEK4 = target: T18, MEK4 (Homo sapiens, UniProt P45985); experiment: kinome scan; conditions: 10 µM
# T18 construct: purchased DiscoverX (KINOMEscan)
# T18 sequence (P45985 whole entry): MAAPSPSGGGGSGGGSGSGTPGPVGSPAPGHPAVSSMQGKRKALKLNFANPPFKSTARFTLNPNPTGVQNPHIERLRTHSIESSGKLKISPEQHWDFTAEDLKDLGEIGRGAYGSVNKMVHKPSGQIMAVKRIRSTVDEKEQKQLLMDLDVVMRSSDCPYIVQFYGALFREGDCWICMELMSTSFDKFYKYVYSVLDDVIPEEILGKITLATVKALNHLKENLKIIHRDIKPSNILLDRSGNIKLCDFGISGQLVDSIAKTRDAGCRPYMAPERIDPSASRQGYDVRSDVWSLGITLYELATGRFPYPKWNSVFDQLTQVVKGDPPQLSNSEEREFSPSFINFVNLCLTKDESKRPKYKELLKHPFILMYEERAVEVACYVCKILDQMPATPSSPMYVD
# MARK1 = target: T19, MARK1 (Homo sapiens, UniProt Q9P0L2); experiment: kinome scan; conditions: 10 µM
# T19 construct: purchased DiscoverX (KINOMEscan)
# PIK3CG = target: T20, PIK3CG (Homo sapiens, UniProt P48736); experiment: kinome scan
# T20 construct: purchased DiscoverX (KINOMEscan)
# T20 sequence (P48736 whole entry): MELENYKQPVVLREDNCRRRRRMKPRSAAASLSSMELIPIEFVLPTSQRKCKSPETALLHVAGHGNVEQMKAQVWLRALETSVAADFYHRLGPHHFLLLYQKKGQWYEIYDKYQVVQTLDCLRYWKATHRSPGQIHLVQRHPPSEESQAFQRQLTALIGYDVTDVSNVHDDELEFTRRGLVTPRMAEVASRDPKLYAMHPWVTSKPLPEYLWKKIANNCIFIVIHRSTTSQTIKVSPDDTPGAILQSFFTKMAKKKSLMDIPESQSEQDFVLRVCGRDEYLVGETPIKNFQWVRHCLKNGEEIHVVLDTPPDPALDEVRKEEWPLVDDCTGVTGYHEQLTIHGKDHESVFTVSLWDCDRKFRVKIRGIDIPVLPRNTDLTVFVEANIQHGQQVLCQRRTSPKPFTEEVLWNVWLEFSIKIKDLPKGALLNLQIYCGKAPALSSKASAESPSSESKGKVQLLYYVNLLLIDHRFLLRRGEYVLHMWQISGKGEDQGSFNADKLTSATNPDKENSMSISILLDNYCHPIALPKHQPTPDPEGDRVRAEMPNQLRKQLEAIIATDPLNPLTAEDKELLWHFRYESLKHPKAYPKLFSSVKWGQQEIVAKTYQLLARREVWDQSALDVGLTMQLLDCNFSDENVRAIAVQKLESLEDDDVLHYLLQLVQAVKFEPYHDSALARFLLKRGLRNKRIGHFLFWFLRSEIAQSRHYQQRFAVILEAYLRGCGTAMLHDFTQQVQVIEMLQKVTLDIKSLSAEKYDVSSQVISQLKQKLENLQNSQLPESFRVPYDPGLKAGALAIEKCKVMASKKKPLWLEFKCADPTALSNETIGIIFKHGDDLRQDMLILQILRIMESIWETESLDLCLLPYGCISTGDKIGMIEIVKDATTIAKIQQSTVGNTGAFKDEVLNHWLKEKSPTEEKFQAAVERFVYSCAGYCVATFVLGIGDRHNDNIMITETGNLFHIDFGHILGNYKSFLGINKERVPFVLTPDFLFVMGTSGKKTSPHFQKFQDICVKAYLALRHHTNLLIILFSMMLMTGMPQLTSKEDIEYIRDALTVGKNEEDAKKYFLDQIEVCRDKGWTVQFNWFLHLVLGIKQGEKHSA
# NDR1 = target: T21, NDR1 (Homo sapiens, UniProt Q15208); experiment: kinome scan; conditions: 10 µM
# T21 construct: purchased DiscoverX (KINOMEscan)
# DYRK2 = target: T22, DYRK2 (Homo sapiens, UniProt Q92630); experiment: Kd select analysis (DiscoverX)
# T22 construct: purchased DiscoverX (KINOMEscan)
# T22 sequence (Q92630 1-601): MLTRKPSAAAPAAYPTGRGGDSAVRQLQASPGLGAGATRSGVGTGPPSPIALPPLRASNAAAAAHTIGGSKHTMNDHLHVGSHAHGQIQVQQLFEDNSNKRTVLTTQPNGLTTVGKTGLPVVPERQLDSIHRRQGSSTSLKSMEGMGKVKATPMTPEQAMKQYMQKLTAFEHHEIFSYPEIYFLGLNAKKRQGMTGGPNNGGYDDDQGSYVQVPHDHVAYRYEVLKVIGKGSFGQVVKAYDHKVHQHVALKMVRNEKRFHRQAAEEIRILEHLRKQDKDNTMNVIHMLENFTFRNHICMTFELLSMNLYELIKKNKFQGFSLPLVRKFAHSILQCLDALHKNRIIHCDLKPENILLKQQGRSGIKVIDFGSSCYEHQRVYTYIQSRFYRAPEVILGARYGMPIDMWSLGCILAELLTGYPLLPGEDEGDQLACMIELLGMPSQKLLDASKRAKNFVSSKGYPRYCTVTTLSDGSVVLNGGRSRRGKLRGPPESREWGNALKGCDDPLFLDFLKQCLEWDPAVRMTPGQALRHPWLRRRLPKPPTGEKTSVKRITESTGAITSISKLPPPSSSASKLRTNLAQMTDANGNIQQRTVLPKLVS
# Procedure: Hits are identified by an ultra-sensitive quantitative PCR detecting the specific DNA tag linked to each kinase (Supplementary Figure S2). The drug is used at a concentration of 10 µM and results are expressed as the percentage of signal (kinase PCR detection) with respect to DMSO control conditions. Thirteen hits were identified, with a signal reduction ranging from 0 to 27% (Table 3). Full raw data are presented in Supplementary Table S4. Interactions between 0 and 20% of reduction were considered to be the most significant ones. […] A sub-micromolar affinity (Kd<1 µM) was only seen with two PIKs (PIP4K2C, PI4KB) and GAK (Table 4). Inhibitions curves from these compounds are shown in Supplementary Figure S3.
# PFTK1 = target: T23, PFTK1 (Homo sapiens, UniProt O94921); experiment: kinome scan; conditions: 10 µM
# T23 construct: purchased DiscoverX (KINOMEscan)
# TESK1 = target: T24, TESK1 (Homo sapiens, UniProt Q15569); experiment: kinome scan; conditions: 10 µM
# T24 construct: purchased DiscoverX (KINOMEscan)
# VEGFR2 = target: T25, VEGFR2 (Homo sapiens, UniProt P35968); experiment: kinome scan; conditions: 10 µM
# T25 construct: purchased DiscoverX (KINOMEscan)
# FLT1 = target: T26, FLT1 (Homo sapiens, UniProt P17948); experiment: kinome scan; conditions: 10 µM
# T26 construct: purchased DiscoverX (KINOMEscan)
# LKB1 = target: T27, LKB1 (Homo sapiens, UniProt Q15831); experiment: kinome scan; conditions: 10 µM
# T27 construct: purchased DiscoverX (KINOMEscan)
# T27 sequence (Q15831 whole entry): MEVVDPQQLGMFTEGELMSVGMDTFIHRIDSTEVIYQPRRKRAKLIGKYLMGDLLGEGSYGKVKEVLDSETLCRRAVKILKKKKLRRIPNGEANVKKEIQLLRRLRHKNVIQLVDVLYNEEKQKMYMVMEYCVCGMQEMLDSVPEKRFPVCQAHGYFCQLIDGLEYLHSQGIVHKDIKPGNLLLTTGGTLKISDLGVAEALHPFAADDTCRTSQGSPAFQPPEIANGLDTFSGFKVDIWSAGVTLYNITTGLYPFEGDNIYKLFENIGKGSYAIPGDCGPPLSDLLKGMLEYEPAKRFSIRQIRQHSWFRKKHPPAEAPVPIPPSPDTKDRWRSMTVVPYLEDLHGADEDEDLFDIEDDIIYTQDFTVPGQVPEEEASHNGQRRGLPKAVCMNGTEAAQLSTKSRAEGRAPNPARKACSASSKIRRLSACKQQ
# ABL2 = target: T28, ABL2 (Homo sapiens, UniProt P42684); experiment: kinome scan; conditions: 10 µM
# T28 construct: purchased DiscoverX (KINOMEscan)
structure (smiles),measurement,setting,value
"Nc1ccc(N=Nc2ccccc2)c(N)n1 [phenazopyridine, 2,6-diamino-3-(phenylazo)pyridine]",kinase inhibition,RIPK5,68
same,kinase inhibition,BIKE,99
same,kinase inhibition,SLK,100
same,kinase inhibition,DCAMKL1,100
same,kinase inhibition,EGFR(L858RT790M),100
same,kinase inhibition,MAP4K2,65
same,Kd,TYK2,26 µM
same,remaining binding (% of control),PIK3CB; 10 µM,22
same,remaining binding at 10 µM,PIK3CB; read-out: % Of control,22%
same,kinase inhibition,PIK3CA(M1043I),100
same,kinase inhibition,MTOR,74
same,remaining binding (% of control),RIOK3,100
same,kinase inhibition,[1],100
same,kinase inhibition,AKT1,99
same,kinase inhibition,[2],67
same,kinase inhibition,IRAK4,100
same,kinase inhibition,[3],78
same,kinase inhibition,EGFR(T790M),100
same,kinase inhibition,HIPK3,98
same,kinase inhibition,MEK4,48
same,kinase inhibition,MARK1,95
same,percent of control (remaining binding),PIK3CG; 10 µM,27
same,remaining binding at 10 µM,PIK3CG; read-out: Kinome scan (% of control at 10 µM),27%
same,kinase inhibition,NDR1,100
same,Kd,DYRK2,5 µM
same,kinase inhibition,PFTK1,100
same,kinase inhibition,TESK1,100
same,kinase inhibition,VEGFR2,97
same,remaining binding (% of control),FLT1,90
same,kinase inhibition,LKB1,88
same,kinase inhibition,ABL2,96
